Source: patent US20230303570A1, “KINASE INHIBITORS AND USES THEREOF” (ABM Therapeutics Corporation, priority 2020, published 2023)

Target: HPK1 (MAP4K1) (Homo sapiens, UniProt Q92918)
Assay: HPK1 (MAP4K1) kinase Lantha screen assay
Assay type: biochemical
Experimental: The effect of the compounds on the activity of HPK1 (MAP4K1) kinase were assessed by Lantha screen assay. • 1. 1×kinase buffer was prepared (50 mM HEPES, pH 7.5, 10 mM MgCl2, 4 mM DT • 2. Compound and assay plates preparation: • 2-1) The compound was diluted to 100× of the final desired highest inhibitor concentration in reaction by 100% DMSO. For example, if a compound was tested at […], then a solution at 500 µM in DMSO was prepared in this step. • 2-2) For each tested compound, the compound was transferred in tubes to one well on a 96-well storage plate and serially diluted by transferring […] of 100% DMSO in the next well and so forth for a total of 6 concentrations. • 2-3) 100 μl of 100% DMSO were added to two empty wells to serve as no compound control and no enzyme control in the same 96-well plate. The resulting plate was labeled as the source plate. • 2-4) 40 μl of compound from source plate were transferred to a new 384-well Echo plate as the intermediate plate. 100 nl of each well from the 384-well Echo plate were transferred to a 384-well assay plate in duplicates. For example, A1 of the 384-well Echo plate was transferred to A1 and A2 of the 384-well plate. A2 of the 384-well Echo plate was transferred to A3 and A4 of the 384-well plate, and so on; • 3. Kinase reaction: a solution of MAP4K1 in 1× kinase buffer at 2-fold the final concentration of each reagent in the assay was prepared. 5 μl of kinase solution was added to each well of the assay plate, except for control wells without enzyme (add 5 μl of 1× kinase buffer instead). The plate was then shaken, then incubated at room temperature for 10 min. A substrate solution of Fluorescein-PKC and ATP in 1× kinase reaction buffer at 2-fold of the final concentration of each reagent desired in the assay was prepared. 5 μl of substrate solution was added to each well of the assay plate to start reaction. The plate was shaken, then covered, and incubated at room temperature for 90 minutes.
Kinase detection: detection solution of 2-fold of final concentration in Antibody Dilution Buffer was prepared. 10 μl of detection solution was added to each well of the assay plate to stop the reaction. The mixtures were mixed briefly with Centrifuge and incubated at room temperature 60 minutes before reading on a plate reader for fluorescence. Data was collected on Envision with excitation at 340 nm and emission at 520 nm and 495 nm.

Chain of HPK1 (MAP4K1) (Q92918 whole entry, species assumed): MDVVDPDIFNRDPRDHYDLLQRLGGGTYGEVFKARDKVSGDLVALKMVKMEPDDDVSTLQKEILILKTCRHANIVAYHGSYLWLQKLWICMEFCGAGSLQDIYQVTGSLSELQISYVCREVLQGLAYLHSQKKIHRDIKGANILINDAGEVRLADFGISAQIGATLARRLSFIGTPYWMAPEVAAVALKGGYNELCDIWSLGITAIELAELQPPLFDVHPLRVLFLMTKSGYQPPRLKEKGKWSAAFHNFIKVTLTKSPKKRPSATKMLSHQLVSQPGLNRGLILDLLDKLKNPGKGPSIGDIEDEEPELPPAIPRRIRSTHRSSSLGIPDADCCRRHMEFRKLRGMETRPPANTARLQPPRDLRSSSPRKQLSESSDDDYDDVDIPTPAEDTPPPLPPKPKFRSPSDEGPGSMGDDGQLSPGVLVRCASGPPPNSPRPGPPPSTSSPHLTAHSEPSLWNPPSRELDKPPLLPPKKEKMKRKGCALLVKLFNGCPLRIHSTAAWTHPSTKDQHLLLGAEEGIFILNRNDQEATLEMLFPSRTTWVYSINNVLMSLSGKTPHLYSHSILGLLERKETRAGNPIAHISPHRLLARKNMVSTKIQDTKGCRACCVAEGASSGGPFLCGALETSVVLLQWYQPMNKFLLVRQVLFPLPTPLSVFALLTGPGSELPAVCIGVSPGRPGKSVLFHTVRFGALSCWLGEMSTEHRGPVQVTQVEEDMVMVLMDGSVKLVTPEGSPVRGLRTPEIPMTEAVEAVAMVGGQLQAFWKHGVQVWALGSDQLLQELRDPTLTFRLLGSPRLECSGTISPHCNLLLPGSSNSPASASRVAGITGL

SMILES	IC50
CNc1ncc2c(n1)N1CCCN=C1C(c1cc(NC(=O)c3cc(C(F)(F)F)ccn3)ccc1C)=C2 [Compound 105, N-(4-methyl-3-(2-(methylamino)-9,10-dihydro-8H-pyrido[1,6-a:2,3-d′]dipyrimidin-6-yl)phenyl)-4-(trifluoromethyl)picolinamide]	100 to 10000 nM
Cc1ccc(NC(=O)c2cc(C(F)(F)F)ccn2)cc1C1=Cc2cnc(Nc3nnn[nH]3)nc2N2CCN=C12 [Compound 239, N-(3-(2-((1H-tetrazol-5-yl)amino)-8,9-dihydroimidazo[1′,2′:1,6]pyrido[2,3-d]pyrimidin-6-yl)-4-methylphenyl)-4-(trifluoromethyl)picolinamide]	100 to 10000 nM
CNc1ncc2c(n1)N1CCN=C1C(c1cc(NC(=O)c3cc(C#N)ccn3)ccc1C)=C2 [Compound 159, 4-cyano-N-(4-methyl-3-(2-(methylamino)-8,9-dihydroimidazo[1′,2′:1,6]pyrido[2,3-d]pyrimidin-6-yl)phenyl)picolinamide]	100 to 10000 nM
CNc1ncc2c(n1)N1CCN=C1C(c1ccc(F)c(C(=O)Nc3cc(C(F)(F)F)ccn3)c1)=C2 [Compound 278, 2-fluoro-5-(2-(methylamino)-8,9-dihydroimidazo[1′,2′:1,6]pyrido[2,3-d]pyrimidin-6-yl)-N-(4-(trifluoromethyl)pyridin-2-yl)benzamide]	> 10000 nM
CNc1ncc2c(n1)N1CCN=C1C(c1cc(NC(=O)C3(C(=O)Nc4ccc(F)cc4)CC3)ccc1Cl)=C2 [Compound 342, N-(4-chloro-3-(2-(methylamino)-8,9-dihydroimidazo[1′,2′:1,6]pyrido[2,3-d]pyrimidin-6-yl)phenyl)-N-(4-fluorophenyl)cyclopropane-1,1-dicarboxamide]	100 to 10000 nM
CNc1ncc2c(n1)N1CCN=C1C(c1cc(NC(=O)c3ccnc(C(F)(F)F)c3)ccc1C)=C2 [Compound 145, N-(4-methyl-3-(2-(methylamino)-8,9-dihydroimidazo[1′,2′:1,6]pyrido[2,3-d]pyrimidin-6-yl)phenyl)-2-(trifluoromethyl)isonicotinamide]	100 to 10000 nM
CNc1cc2c(cn1)C=C(c1cc(NC(=O)c3cc(C(F)(F)F)ccn3)ccc1C)C1=NCCN12 [Compound 132, N-(4-methyl-3-(8-(methylamino)-1,2-dihydroimidazo[1,2-a][1,6]naphthyridin-4-yl)phenyl)-4-(trifluoromethyl)picolinamide]	100 to 10000 nM
CNc1ncc2c(n1)N1CCN=C1C(c1cc(NC(=O)c3cc(C(F)(F)F)cc(-n4cnc(C)c4)n3)ccc1C)=C2 [Compound 157, 6-(4-methyl-1H-imidazol-1-yl)-N-(4-methyl-3-(2-(methylamino)-8,9-dihydroimidazo[1′,2′:1,6]pyrido[2,3-d]pyrimidin-6-yl)phenyl)-4-(trifluoromethyl)picolinamide]	100 to 10000 nM
O=C(Nc1ccc(Cl)c(C2=Cc3cnc(NC4CCOCC4)nc3N3CCN=C23)c1)c1cc(C(F)(F)F)ccn1 [Compound 138, N-(4-chloro-3-(2-((tetrahydro-2H-pyran-4-yl)amino)-8,9-dihydroimidazo[1′,2′:1,6]pyrido[2,3-d]pyrimidin-6-yl)phenyl)-4-(trifluoromethyl)picolinamide]	< 100 nM
CNc1ncc2c(n1)N1CCN=C1C(c1cc(NC(=O)C3CCNC(C(F)(F)F)C3)ccc1C)=C2 (stereo not drawn) [Compound 155, N-(4-methyl-3-(2-(methylamino)-8,9-dihydroimidazo[1′,2′:1,6]pyrido[2,3-d]pyrimidin-6-yl)phenyl)-2-(trifluoromethyl)piperidine-4-carboxamide]	> 10000 nM
Cc1ccc(NC(=O)c2cc(C(F)(F)F)ccn2)cc1C1=Cc2cnc(Nc3ccccc3F)nc2N2CCN=C12 [Compound 225, N-(3-(2-((2-fluorophenyl)amino)-8,9-dihydroimidazo[1′,2′:1,6]pyrido[2,3-d]pyrimidin-6-yl)-4-methylphenyl)-4-(trifluoromethyl)picolinamide]	< 100 nM

The remaining lines, values ahead:

IC50	SMILES
< 100 nM	Cc1cc(F)c(NC(=O)c2cc(C(F)(F)F)ccn2)cc1C1=Cc2cnc(Nc3ccn(C)n3)nc2N2CCN=C12 [Compound 269, N-(2-fluoro-4-methyl-5-(2-((1-methyl-1H-pyrazol-3-yl)amino)-8,9-dihydroimidazo[1′,2′:1,6]pyrido[2,3-d]pyrimidin-6-yl)phenyl)-4-(trifluoromethyl)picolinamide]
< 100 nM	CNc1ncc2c(n1)N1CCN=C1C(c1cc(NC(=O)c3cccc(C(C)(C)O)c3)ccc1C)=C2 [Compound 170, 3-(2-hydroxypropan-2-yl)-N-(4-methyl-3-(2-(methylamino)-8,9-dihydroimidazo[1′,2′:1,6]pyrido[2,3-d]pyrimidin-6-yl)phenyl)benzamide]
< 100 nM	Cc1ccc(NC(=O)c2cc(C(F)(F)F)ccn2)cc1C1=Cc2cnc(Nc3ccncc3)nc2N2CCN=C12 [Compound 214, N-(4-methyl-3-(2-(pyridin-4-ylamino)-8,9-dihydroimidazo[1′,2′:1,6]pyrido[2,3-d]pyrimidin-6-yl)phenyl)-4-(trifluoromethyl)picolinamide]
< 100 nM	CNc1ncc2c(n1)N1CCN=C1C(c1cc(NC(=O)c3cccc(C(C)(C)C#N)c3)ccc1C)=C2 [Compound 161, 3-(2-cyanopropan-2-yl)-N-(4-methyl-3-(2-(methylamino)-8,9-dihydroimidazo[1′,2′:1,6]pyrido[2,3-d]pyrimidin-6-yl)phenyl)benzamide]
< 100 nM	COc1ccc(Nc2ncc3c(n2)N2CCN=C2C(c2cc(NC(=O)c4cc(C(F)(F)F)ccn4)ccc2C)=C3)cn1 [Compound 221, N-(3-(2-((6-methoxypyridin-3-yl)amino)-8,9-dihydroimidazo[1′,2′:1,6]pyrido[2,3-d]pyrimidin-6-yl)-4-methylphenyl)-4-(trifluoromethyl)picolinamide]
< 100 nM	Cc1ccc(NC(=O)c2cc(C(F)(F)F)ccn2)cc1C1=Cc2cnc(Nc3cccnc3C)nc2N2CCN=C12 [Compound 209, N-(4-methyl-3-(2-((2-methylpyridin-3-yl)amino)-8,9-dihydroimidazo[1′,2′:1,6]pyrido[2,3-d]pyrimidin-6-yl)phenyl)-4-(trifluoromethyl)picolinamide]
< 100 nM	Cc1cc(Nc2ncc3c(n2)N2CCN=C2C(c2cc(NC(=O)c4cc(C(F)(F)F)ccn4)ccc2C)=C3)ccn1 [Compound 212, N-(4-methyl-3-(2-((2-methylpyridin-4-yl)amino)-8,9-dihydroimidazo[1′,2′:1,6]pyrido[2,3-d]pyrimidin-6-yl)phenyl)-4-(trifluoromethyl)picolinamide]
< 100 nM	Cc1ccc(NC(=O)c2cc(C(F)(F)F)ccn2)cc1C1=Cc2cnc(Nc3ccc(F)cc3)nc2N2CCN=C12 [Compound 227, N-(3-(2-((4-fluorophenyl)amino)-8,9-dihydroimidazo[1′,2′:1,6]pyrido[2,3-d]pyrimidin-6-yl)-4-methylphenyl)-4-(trifluoromethyl)picolinamide]
< 100 nM	Cc1ccc(NC(=O)c2cc(C(F)(F)F)ccn2)cc1C1=Cc2cnc(NC3COC3)nc2N2CCN=C12 [Compound 114, N-(4-methyl-3-(2-(oxetan-3-ylamino)-8,9-dihydroimidazo[1′,2′:1,6]pyrido[2,3-d]pyrimidin-6-yl)phenyl)-4-(trifluoromethyl)picolinamide]
< 100 nM	CNc1ncc2c(n1)N1CCN=C1C(c1cc(NC(=O)c3cc(C(C)(C)C#N)ccn3)c(F)cc1C)=C2 [Compound 165, 4-(2-cyanopropan-2-yl)-N-(2-fluoro-4-methyl-5-(2-(methylamino)-8,9-dihydroimidazo[1′,2′:1,6]pyrido[2,3-d]pyrimidin-6-yl)phenyl)picolinamide]
< 100 nM	O=C(Nc1ccc(Cl)c(C2=Cc3cnc(NC4COC4)nc3N3CCN=C23)c1)c1cc(C(F)(F)F)ccn1 [Compound 137, N-(4-chloro-3-(2-(oxetan-3-ylamino)-8,9-dihydroimidazo[1′,2′:1,6]pyrido[2,3-d]pyrimidin-6-yl)phenyl)-4-(trifluoromethyl)picolinamide]
< 100 nM	Cc1ccc(NC(=O)c2cc(C(F)(F)F)ccn2)cc1C1=Cc2cnc(NCC(C)(C)O)nc2N2CCN=C12 [Compound 113, N-(3-(2-((2-hydroxy-2-methylpropyl)amino)-8,9-dihydroimidazo[1′,2′:1,6]pyrido[2,3-d]pyrimidin-6-yl)-4-methylphenyl)-4-(trifluoromethyl)picolinamide]
< 100 nM	Cc1cnc(Nc2ncc3c(n2)N2CCN=C2C(c2cc(NC(=O)c4cc(C(F)(F)F)ccn4)ccc2C)=C3)s1 [Compound 232, N-(4-methyl-3-(2-((5-methylthiazol-2-yl)amino)-8,9-dihydroimidazo[1′,2′:1,6]pyrido[2,3-d]pyrimidin-6-yl)phenyl)-4-(trifluoromethyl)picolinamide]
